Drawing on US8658661B2, “Oxadiazole inhibitors of leukotriene production” (Boehringer Ingelheim International GmbH, priority 2010, dated 2014), this text covers IC50 for 26 compounds.

Each structure is given as a SMILES string.

For orientation: IC50 means the concentration at which inhibition is half-maximal.

Experiment [1] concerns the target T1, recombinant human FLAP protein (Homo sapiens, UniProt P20292).
T1 construct: made in house; host or cells: Sf9 insect cells (100,000×g membrane pellet used)
T1 sequence (P20292 1-161): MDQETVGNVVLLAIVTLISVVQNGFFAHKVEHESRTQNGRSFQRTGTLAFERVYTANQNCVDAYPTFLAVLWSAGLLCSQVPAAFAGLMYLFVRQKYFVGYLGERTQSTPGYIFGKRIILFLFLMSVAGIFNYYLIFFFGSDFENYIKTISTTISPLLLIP
The experiment is described as follows: FLAP binding assay (SPA, displacement of [125I]L-691,831). The settings on record: membranes of sf9 cells expressing recombinant human FLAP; [125I]L-691,831 probe; read-out: FLAP binding IC50. The procedure, abridged:
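Membranes from sf9 cells expressing human FLAP in pH 7.5 Tris buffer (MgCl2, EDTA, PMSF). Non-specific binding defined with 10 μM cold L-691,831.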
In general terms: Loss of bound radioactivity is the signal in a displacement assay; it reports binding, not function.

Experiment [2] has as its system synthesis of LTB4 in human whole blood. The experiment is described as follows: Human whole blood assay (inhibition of LTB4 synthesis, calcimycin stimulated). In kind it is cell-based. The settings on record: heparinized human whole blood, calcimycin 20 μM, plasma LTB4. Summed up:
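Heparinized human whole blood was preincubated with compound for 15 min at 37° C, then stimulated with calcimycin (20 μM final, in PBS pH 7.4) for a further 30 min at 37° C. Plasma LTB4 was quantified by antibody-based homogeneous time-resolved fluorescence.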

As for `C[C@](c1ccc(-c2ccc(N)nc2)cc1)(c1noc(N2CCC(O)CC2)n1)C1CC1` [Example 283, 1-(3-{(S)-1-[4-(6-Amino-pyridin-3-yl)-phenyl]-1-cyclopropyl-ethyl}-[1,2,4]oxadiazol-5-yl)-piperidin-4-ol], the IC50 in experiment [1] stood at 16 nM; in experiment [2] it was 920 nM.
As to `Cc1n[nH]c(C)c1-c1nc(C(C)(c2ccc(-c3cnc(N)nc3)cc2)C(C)C)no1` (stereo not shown) [Example 133, 5-(4-{2-[5-(3,5-dimethyl-1H-pyrazol-4-yl)-1,2,4-oxadiazol-3-yl]-3-methylbutan-2-yl}phenyl)pyrimidin-2-amine], the IC50 in experiment [1] amounted to 1.6 nM; in experiment [2] it was 190 nM.
As for `CC(C)(O)CNc1cnc(-c2nc(C(C)(C)c3ccc(-c4cnc(N)nc4)cc3)no2)cn1` [Example 73, 1-{[5-(3-{2-[4-(2-aminopyrimidin-5-yl)phenyl]propan-2-yl}-1,2,4-oxadiazol-5-yl)pyrazin-2-yl]amino}-2-methylpropan-2-ol], the figures for the IC50 in experiment [1] and in experiment [2] were 28 nM and 990 nM, respectively.
`Cc1nc(N)ncc1-c1ccc(C(C)(c2noc(-c3cnn(CC(=O)N(C)C)c3)n2)C2CC2)cc1` (stereo not shown) [Example 240, 2-[4-(3-{1-[4-(2-Amino-4-methyl-pyrimidin-5-yl)-phenyl]-1-cyclopropyl-ethyl}-[1,2,4]oxadiazol-5-yl)-pyrazol-1-yl]-N,N-dimethyl-acetamide]: the IC50 was found to be 15 nM in experiment [1] and 190 nM in experiment [2].
For `CC(C)C(C)(c1ccc(-c2cnc(N)nc2)cc1)c1noc(-c2cncnc2)n1` (stereo not shown) [Example 129, 5-(4-{3-methyl-2-[5-(pyrimidin-5-yl)-1,2,4-oxadiazol-3-yl]butan-2-yl}phenyl)pyrimidin-2-amine] the same measures were 2 nM and 180 nM.
The like results for `CC(C)C(C)(c1ccc(-c2cnc(N)nc2)cc1)c1noc(N2CCN(CCO)CC2)n1` (stereo not shown) [Example 186, 2-[4-(3-{1-[4-(2-Amino-pyrimidin-5-yl)-phenyl]-1,2-dimethyl-propyl}-[1,2,4]oxadiazol-5-yl)-piperazin-1-yl]-ethanol] were, in that order, 20 nM and 150 nM.
The like results for `CC(C)C(C)(c1ccc(-c2cnc(N)nc2)cc1)c1noc(-c2ccc(=O)[nH]c2)n1` (stereo not shown) [Example 9, 5-(3-{2-[4-(2-aminopyrimidin-5-yl)phenyl]-3-methylbutan-2-yl}-1,2,4-oxadiazol-5-yl)pyridin-2(1H)-one] were, in that order, 2.9 nM and 210 nM.
For the compound `CC(C)(O)CNc1ccc(-c2nc(C(C)(c3ccc(-c4cnc(N)nc4)cc3)C3CC3)no2)cn1` (stereo not shown) [Example 39, 1-{[5-(3-{1-[4-(2-aminopyrimidin-5-yl)phenyl]-1-cyclopropylethyl}-1,2,4-oxadiazol-5-yl)pyridin-2-yl]amino}-2-methylpropan-2-ol], the concentration for half-maximal inhibition (IC50) came out at 2.1 nM in experiment [1] and 110 nM in experiment [2].
In the case of `Cn1cc(-c2nc(C(C)(c3ccc(-c4cncc(OCc5ccccc5)c4)cc3)C3CC3)no2)cn1` (stereo not shown) [Example 290, 3-Benzyloxy-5-(4-{1-cyclopropyl-1-[5-(1-methyl-1H-pyrazol-4-yl)-[1,2,4]oxadiazol-3-yl]-ethyl}-phenyl)-pyridine], the IC50 stood at 22 nM in experiment [1] and 2000 nM in experiment [2].
The like results for `C[C@@](c1ccc(-c2ccc(N)nc2)cc1)(c1noc(-c2cnc(N3CCNCC3)cn2)n1)C1CC1` [Example 210, 5-(4-{(R)-1-Cyclopropyl-1-[5-(3,4,5,6-tetrahydro-2H-[1,2′]bipyrazinyl-5′-yl)-[1,2,4]oxadiazol-3-yl]-ethyl}-phenyl)-pyridin-2-ylamine] were, in that order, 4.4 nM and 190 nM.
For `CN(C)C(=O)Cn1cc(-c2nc([C@@](C)(c3ccc(-c4cnc(N)c(C#N)n4)cc3)C3CC3)no2)cn1` [Example 294, 2-[4-(3-{(R)-1-[4-(5-Amino-6-cyano-pyrazin-2-yl)-phenyl]-1-cyclopropyl-ethyl}-[1,2,4]oxadiazol-5-yl)-pyrazol-1-yl]-N,N-dimethyl-acetamide], the figures for the IC50 in experiment [1] and in experiment [2] were 7 nM and 200 nM, respectively.
The like results for `CC(C)C(C)(c1ccc(-c2cnc(N)nc2)cc1)c1noc(NCCO)n1` (stereo not shown) [Example 80, 2-[(3-{2-[4-(2-aminopyrimidin-5-yl)phenyl]-3-methylbutan-2-yl}-1,2,4-oxadiazol-5-yl)amino]ethanol] were, in that order, 23 nM and 350 nM.
For `CC(C)C(C)(c1ccc(-c2cnc(N)nc2)cc1)c1noc(-c2cnc(N3CCN(C)CC3)cn2)n1` (stereo not shown) [Example 163, 5-[4-(3-methyl-2-{5-[5-(4-methylpiperazin-1-yl)pyrazin-2-yl]-1,2,4-oxadiazol-3-yl}butan-2-yl)phenyl]pyrimidin-2-amine] the same measures were 0.74 nM and 30 nM.
For `Cn1cc(-c2nc(C(C)(c3ccc(-c4cnc5[nH]ccc5n4)cc3)C3CC3)no2)cn1` (stereo not shown) [Example 273, 2-(4-{1-Cyclopropyl-1-[5-(1-methyl-1H-pyrazol-4-yl)-[1,2,4]oxadiazol-3-yl]-ethyl}-phenyl)-5H-pyrrolo[2,3-b]pyrazine] the same measures were 6.1 nM and 56 nM.
On to `CC(C)C(C)(c1ccc(-c2cnc(N)nc2)cc1)c1noc(N2CCN(C(N)=O)CC2)n1` (stereo not shown) [Example 192, 4-(3-{1-[4-(2-Amino-pyrimidin-5-yl)-phenyl]-1,2-dimethyl-propyl} [1,2,4]oxadiazol-5-yl)-piperazine-1-carboxylic acid amide], for which the values for the IC50 in experiment [1] and in experiment [2] were 23 nM and 740 nM, respectively.
For `Cc1nc(-c2ccc([C@](C)(c3noc(-c4cnn(CC(=O)N(C)C)c4)n3)C3CC3)cc2)cnc1N` [Example 177, 2-[4-(3-{(R)-1-[4-(5-Amino-6-methyl-pyrazin-2-yl)-phenyl]-1-cyclopropyl-ethyl}-[1,2,4]oxadiazol-5-yl)-pyrazol-1-yl]-N,N-dimethyl-acetamide] the same measures were 8.9 nM and 66 nM.
`CN(C)C(=O)Cn1cc(-c2nc(C(C)(c3ccc(-c4cnc(N)nc4F)cc3)C3CC3)no2)cn1` (stereo not shown) [Example 275, 2-[4-(3-{1-[4-(2-Amino-4-fluoro-pyrimidin-5-yl)-phenyl]-1-cyclopropyl-ethyl}-[1,2,4]oxadiazol-5-yl)-pyrazol-1-yl]-N,N-dimethyl-acetamide]: the values for the IC50 in experiment [1] and in experiment [2] were 11 nM and 220 nM, respectively.
For `CC(C)C(c1ccc(-c2cnc(N)nc2)cc1)c1noc(-c2cnn(C)c2)n1` (stereo not shown) [Example 67, 5-(4-{2-methyl-1-[5-(1-methyl-1H-pyrazol-4-yl)-1,2,4-oxadiazol-3-yl]propyl}phenyl)pyrimidin-2-amine] the same measures were 6.2 nM and 190 nM.
For `CC(c1ccc(-c2cnc(N)nc2)cc1)(c1noc(-c2cnn(C3COC3)c2)n1)C1CCC1` (stereo not shown) [Example 99, 5-[4-(1-cyclobutyl-1-{5-[1-(oxetan-3-yl)-1H-pyrazol-4-yl]-1,2,4-oxadiazol-3-yl}ethyl)phenyl]pyrimidin-2-amine] the same measures were 3.9 nM and 200 nM.
The like results for `Cn1cc(-c2nc([C@@](C)(c3ccc(-c4cnc(N)cn4)cc3)C3CC3)no2)cn1` [Example 184, 5-(4-{(R)-1-Cyclopropyl-1-[5-(1-methyl-1H-pyrazol-4-yl)-[1,2,4]oxadiazol-3-yl]-ethyl}-phenyl)-pyrazin-2-ylamine] were, in that order, 2 nM and 23 nM.
For the compound `C[C@](c1ccc(-c2cnc(N)cn2)cc1)(c1noc(-c2cnc(N3CCNCC3)cn2)n1)C1CC1` [Example 214, 5-(4-{(S)-1-Cyclopropyl-1-[5-(3,4,5,6-tetrahydro-2H-[1,2′]bipyrazinyl-5′-yl)-[1,2,4]oxadiazol-3-yl]-ethyl}-phenyl)-pyrazin-2-ylamine], the IC50 in experiment [1] was found to be 12 nM; in experiment [2], 450 nM.
With `CC(C)(O)Cn1cc(-c2nc(C(C)(C)c3ccc(-c4cnc(N)nc4)cc3)no2)cn1` [Example 75, 1-[4-(3-{2-[4-(2-aminopyrimidin-5-yl)phenyl]propan-2-yl}-1,2,4-oxadiazol-5-yl)-1H-pyrazol-1-yl]-2-methylpropan-2-ol], the IC50 in experiment [1] came to 23 nM; in experiment [2], 260 nM.
The like results for `CN(C)C(=O)Cn1cc(-c2nc([C@@](C)(c3ccc(-c4cnc5c(c4)CCN5)cc3)C3CC3)no2)cn1` [Example 284, 2-[4-(3-{(R)-1-Cyclopropyl-1-[4-(2,3-dihydro-1H-pyrrolo[2,3-b]pyridin-5-yl)-phenyl]-ethyl}-[1,2,4]oxadiazol-5-yl)-pyrazol-1-yl]-N,N-dimethyl-acetamide] were, in that order, 4.7 nM and 200 nM.
For `CC(C)(CO)Nc1cnc(-c2nc([C@](C)(c3ccc(-c4cnc(N)nc4)cc3)C3CC3)no2)cn1` (single isomer, unassigned) [Example 57] the same measures were 6.8 nM and 150 nM.
On to `CC(c1ccc(-c2cnc(N)nc2)cc1)(c1noc(-c2ccc(NCCS(C)(=O)=O)nc2)n1)C1CC1` (stereo not shown) [Example 41, 5-(4-{1-cyclopropyl-1-[5-(6-{[2-(methylsulfonyl)ethyl]amino}pyridin-3-yl)-1,2,4-oxadiazol-3-yl]ethyl}phenyl)pyrimidin-2-amine], for which the IC50 in experiment [1] amounted to 2.2 nM; in experiment [2], 170 nM.
On to `CC(C)C(C)(c1ccc(-c2cnc(N)nc2)cc1)c1noc(C2(C)CCCC2)n1` (stereo not shown) [Example 117, 5-(4-{3-methyl-2-[5-(1-methylcyclopentyl)-1,2,4-oxadiazol-3-yl]butan-2-yl}phenyl)pyrimidin-2-amine], for which the IC50 in experiment [1] was found to be 31 nM; in experiment [2] it was 1200 nM.
